Assay results as given in patent US11274079B2 (DALIAN INSTITUTE OF CHEMICAL PHYSICS, CHINESE ACADEMY OF …, priority 2018, dated 2022).

Experiments:
[1] = biological target: T1, M1 receptor (Homo sapiens, UniProt P11229); assay: DMR assay, antagonism of acetylcholine in CHO-K1 cells stably transfecting the M1 receptor; format: cell-based; details: CHO-K1-M1 cells, DMR, acetylcholine 1 μM, 1 h pretreatment, time point 5 min
T1 construct: expressed in transfected cells; host or cells: CHO-K1
T1 sequence (P11229 1-460): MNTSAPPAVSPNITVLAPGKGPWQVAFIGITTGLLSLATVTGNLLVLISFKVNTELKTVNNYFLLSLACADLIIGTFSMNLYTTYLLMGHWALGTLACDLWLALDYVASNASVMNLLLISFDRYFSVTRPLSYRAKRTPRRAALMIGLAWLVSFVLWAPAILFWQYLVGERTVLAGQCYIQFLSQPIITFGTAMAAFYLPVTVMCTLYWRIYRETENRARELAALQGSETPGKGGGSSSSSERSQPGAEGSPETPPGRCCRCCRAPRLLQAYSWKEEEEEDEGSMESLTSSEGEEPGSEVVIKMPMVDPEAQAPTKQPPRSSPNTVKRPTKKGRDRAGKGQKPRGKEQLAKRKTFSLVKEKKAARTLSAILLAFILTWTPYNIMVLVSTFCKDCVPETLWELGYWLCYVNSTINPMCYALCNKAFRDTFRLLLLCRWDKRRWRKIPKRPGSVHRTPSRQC
Procedure: (§1) The present invention relates to the antagonistic activity of the compound against the muscarinic receptor, which is primarily assessed by a cell-level dynamic mass redistribution (DMR) assay method. All tests are carried out on Epic platform, wherein the target model of the muscarinic receptor M1 is the CHO-K1 ceil model stably transfecting the M1 receptor, the target model of M3 is the HT-29 cell model endogenously highly expressing the M3 receptor, and the selected probe molecule is acetylcholine. Tire probe molecule acetylcholine is dissolved in water, while all other compounds are dissolved in DMSO.
(§2) The inoculated cell plate is placed in a cell incubator for culture for 12 h until the cell growth and fusion degree reaches about 95%, and the activity assay is carried out. The culture medium is sucked from the cultured ceils, the buffer salt specified by the test is added with a volume of 30 μL per orifice and is stabilized for 1 h. After the baseline is stable, a 2-min baseline is established, and different concentrations of compounds to be tested are added to test the cultured cells for 1 h. After the cells are pretreated with the compounds to be tested for 1 h, the 2-min baseline is re-established, and acetylcholine having a concentration of 1 μM is added to test the cultured cells for 1 h.

[2] = tested on: isolated tracheal smooth muscle; assay: Carbachol-induced contraction of isolated tracheal strip; details: Cavia porcellus, read-out: IC50, diastolic effect on isolated tracheal smooth muscle
From the text: 1. Experimental Materials
2. Preparation of Tracheal Strip
The guinea pig is put to death by hammering it on the head, the chest cavity is quickly opened, and trachea is carefully isolated. […] The connective tissue and fat around the trachea are gently removed, and the trachea segment is quickly suspended and cut into tracheal strips with a blade (2-3 mm in width and 20 mm in length). […] The upper end of the tracheal strip is connected to a muscle tension transducer, and the load is adjusted to 1.5 g. The biological signal processing system is used to record the changes in muscular tension of tracheal smooth muscle. The perfusate is replaced once every 15 min, and the experiment is started after the tension is stabilized for 1 h. After each experiment, the smooth muscle is rinsed 3 to 5 times, and the next experiment is carried out after stabilization to the baseline.
3. Effects of Compounds Tested on Contraction of Isolated Tracheal Strip in Guinea Pig
After incubation of isolated tracheal for 1 h, 10 μm/L of carbachol is added to induce the minimum concentration (the concentration obtained from the dose-effect curve of carbachol) of the maximum tracheal smooth muscle contraction, and the changes in tension of the tracheal strip within 5 min are recorded. When the tension of the tracheal smooth muscle reaches the highest point, the compounds tested with a concentration of 1 nm/L are added, and the changes in tension of the tracheal strip within 5 min are recorded. […] Then, the concentration difference is decreased, that is, the concentration is increased by three or four times to repeat the above administration, which makes the tension decrease continuously to the base value (initial load). The changes in tension of the tracheal stop within 5 min are recorded. The dose-effect relationship between the compounds tested and the contractile activity of the isolated tracheal smooth muscle in the guinea pig is obtained. The curve of the changes in tension of the tracheal smooth muscle in each group is recorded and the inhibition rate is calculated. After repeated experiments, IC50 value of each compound tested is calculated by taking points respectively.
The dose-effect relationship between solvent (DMSO) control group and the contractile activity of the isolated tracheal smooth muscle in the guinea pig is recorded. Inhibition Rate=(Tension before Administration−Tension after Administration)/Tension before Administration

[3] = biological target: T2, M3 receptor (Homo sapiens, UniProt P20309); assay: DMR assay, antagonism of acetylcholine in HT-29 cells endogenously expressing the M3 receptor; format: cell-based; details: HT-29 cells, DMR, acetylcholine 16 μM, 1 h pretreatment, time point 30 min
T2 construct: HT-29 cell model endogenously highly expressing the M3 receptor; endogenous in cells; host or cells: HT-29
Procedure: as §1
as §2, with “20” for “12”, “cells,” for “ceils,”, “h.” for “h. After the cells are pretreated with the compounds to be tested for 1 h, the 2-min baseline is re-established, and acetylcholine having a concentration of 1 μM is added to test the cultured cells for 1 h.”

[4] = tested on: guinea pigs; assay: Acetylcholine chloride/histamine spray-induced asthma, incubation period; format: in vivo, guinea pig; details: for asthma incubation period: 0.2 mM in normal saline sprayed 10 min, challenge after 10 min, recorded as 240 s if no convulsion and fall
Procedure: On the first day, guinea pigs are placed in a 38×38×38 cm (about 55 L) of home-made container with an atomizing nozzle having a diameter of about 3 cm above the side wall. Ultrasonic atomizer (YUWELL, model 402AI) is used to spray normal saline containing acetylcholine chloride (20 g/L) and histamine (1 g/L) for 15 s. The incubation period of asthma of guinea pigs (also is called asthma incubation period, which is the time from the end of the spray to asthma attack, extreme breathing difficulty until convulsion and fall) is recorded after the cessation of spraying. Animals with an incubation period of less than 120 s are qualified sensitive animals.
2. Experimental Processes
On the second day, the qualified animals are selected for experiments, wherein one group (comprising 4 guinea pigs) is used as the control group, one group (comprising 4 guinea pigs) is experimented with positive medicine […] and one group (comprising 10 guinea pigs) is experimented with the drug to be tested. The animals are placed in a container, and sprayed with normal saline, tiotropium bromide and the compound to be tested. Both tiotropium bromide and the compound to be tested are soluble in normal saline at a concentration of 0.2 mM. After spraying for 10 min, the guinea pigs are taken out and put into another container of the same size. After 10 min, normal saline containing acetylcholine chloride (20 g/L) and histamine (1 g/L) is sprayed into the container for 15 s. The incubation periods of asthma of the guinea pigs are observed and recorded. If there is no convulsion and fall after 240 s, the incubation period is recorded as 240 s.

T2 sequence (P20309 whole entry): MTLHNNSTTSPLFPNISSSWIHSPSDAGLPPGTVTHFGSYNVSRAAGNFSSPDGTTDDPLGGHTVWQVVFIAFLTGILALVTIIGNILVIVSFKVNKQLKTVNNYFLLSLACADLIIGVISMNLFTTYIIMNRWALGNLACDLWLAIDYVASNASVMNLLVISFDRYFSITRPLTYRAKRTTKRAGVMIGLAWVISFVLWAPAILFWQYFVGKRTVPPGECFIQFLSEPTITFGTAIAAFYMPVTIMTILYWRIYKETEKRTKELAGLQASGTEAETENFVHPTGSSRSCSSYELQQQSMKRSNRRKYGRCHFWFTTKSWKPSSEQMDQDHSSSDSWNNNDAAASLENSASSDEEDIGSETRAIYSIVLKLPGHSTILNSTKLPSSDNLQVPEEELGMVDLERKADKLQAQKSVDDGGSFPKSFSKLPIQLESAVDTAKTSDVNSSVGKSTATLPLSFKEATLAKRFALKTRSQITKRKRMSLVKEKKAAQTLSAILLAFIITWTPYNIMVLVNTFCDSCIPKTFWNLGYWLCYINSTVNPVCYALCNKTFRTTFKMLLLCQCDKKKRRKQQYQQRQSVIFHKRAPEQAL

Structure (SMILES) | IC50 [1] | IC50 [2] | IC50 [3] | asthma incubation period [4] | efficacy in asthma model, in words ([4]; 0.2 mM spray)
C[N+]1(C)CCCCC1CC(c1ccccc1O)c1ccccc1O (racemic) [I-3-Br, 2-[2,2-bis(2-hydroxy-phenyl)ethyl]-N,N-dimethylpiperidine Bromide] | 23.4 ± 6.6 nM | 4.1 nM | 15.4 ± 2.9 nM |  | 
Cc1ccc(O)c(C(CC2CCCC[N+]2(C)C)c2ccccc2)c1 (single isomer, unassigned) [I-4a-Br, 2-[2-(2-hydroxy-5-methyl-phenyl)-phenethyl]-N,N-dimethylpiperidine Bromide] | 36.2 ± 6.1 nM | 13.3 nM | 35.5 ± 13.9 nM |  | 
C[N+]1(C)CCCCC1CC(c1ccccc1)c1ccccc1O (stereo not drawn) [I-2a-Br, 2-[2-(2-hydroxy-phenyl)-phenethyl]-N,N-dimethylpiperidine Bromide] | 53.8 ± 4.6 nM | 6.4 nM | 33.8 ± 3.6 nM |  | 
Cc1ccc(O)c(C(CC2CCCC[N+]2(C)C)c2ccccc2)c1.[Br-] (stereo not drawn) [I-4a-1-Br, 2-[2-(2-hydroxy-5-methyl-phenyl)-phenethyl]-N,N-dimethylpiperidine Bromide] | 28.8 ± 11.3 nM |  | 39.3 ± 10.9 nM | 240 s | good efficacy
Cc1ccc(O)c(C(CC2CCCC[N+]2(C)C)c2ccccc2F)c1 (stereo not drawn) [I-7, 2-[2-(2-fluorophenyl)-2-(2-hydroxy-5-methyl-phenyl)-ethyl]-N,N-dimethylpiperidine Bromide] | 320 ± 20 nM | 33.4 nM | 103 ± 10 nM |  | 
C[N+]1(C)[C@@H]2C[C@@H](OC(=O)C(O)(c3cccs3)c3cccs3)C[C@H]1[C@@H]1O[C@@H]12.[Br-] [Tiotropium Bromide, reference compound] |  | 33 nM |  | 238.9 ± 5.0 s | 
